In DBAASP:
≈ marks a conversion by molar mass, not a printed value. Where “and” joins values, the source holds several entries; their conditions need not be identical. Equal entries are not always repeated. Blank lines part the entries; values can stand above or below the molecule they belong to.

Assays:
Assay in all cases: ≥ marks a high value that may be exact or a test limit, other limits are often not marked, values filed in µg/mL are converted to µM
[1] = test system: Staphylococcus epidermidis
[2] = test system: Staphylococcus aureus K147
[3] = test system: Pseudomonas aeruginosa H187
Enterococcus faecalis = test system: Enterococcus faecalis
Candida albicans CAN105 = test system: Candida albicans CAN105
[4] = test system: Staphylococcus aureus SAP 0017
Escherichia coli UB1005 = test system: Escherichia coli UB1005
[5] = test system: Bacillus subtilis ATCC 6633
[6] = test system: Escherichia coli ATCC 25922
[7] = test system: Staphylococcus aureus ATCC 25923
[8] = test system: Salmonella enterica subsp. enterica serovar Enteritidis BNCC 103134
[9] = test system: Pseudomonas aeruginosa R1
[10] = test system: Pseudomonas aeruginosa ME
[11] = test system: Staphylococcus epidermidis ATCC 12228
[12] = test system: Pseudomonas aeruginosa ATCC 27853
[13] = test system: Pseudomonas aeruginosa ATCC 19660
[14] = test system: Pseudomonas aeruginosa PAO1
Pseudomonas aeruginosa = test system: Pseudomonas aeruginosa
Candida albicans = test system: Candida albicans
[15] = test system: Pseudomonas aeruginosa AA43
[16] = test system: Acinetobacter baumannii ATCC 19606
[17] = test system: Corynebacterium jeikeium ATCC BAA-949
Staphylococcus aureus = test system: Staphylococcus aureus
Staphylococcus hominis = test system: Staphylococcus hominis

- MIC [1]: 17.5 µM (≈ 43 µg/mL)
- MIC [2]: 26.1 µM (≈ 64 µg/mL)
- MIC [3]: 13 µM (≈ 32 µg/mL)
- MIC (Enterococcus faecalis): 26.1 µM (≈ 64 µg/mL)
- MIC (Candida albicans CAN105): 26.1 µM (≈ 64 µg/mL)
- MIC [4]: 26.1 µM (≈ 64 µg/mL)
- MIC (Escherichia coli UB1005): 5.3 µM (≈ 13 µg/mL)
Structure (SMILES): CC[C@H](C)[C@H](NC(=O)CNC(=O)[C@@H](NC(=O)[C@H](CCCCN)NC(=O)[C@H](CCCCN)NC(=O)[C@H](Cc1ccccc1)NC(=O)[C@H](CC(C)C)NC(=O)[C@H](CCCCN)NC(=O)[C@H](Cc1c[nH]c2ccccc12)NC(=O)[C@@H](N)CCCCN)[C@@H](C)CC)C(=O)NCC(=O)N[C@@H](C)C(=O)N[C@H](C(=O)N[C@@H](CC(C)C)C(=O)N[C@H](C(=O)N[C@H](C(=O)NCC(=O)N[C@@H](CC(C)C)C(=O)N1CCC[C@H]1C(=O)N[C@@H](C)C(=O)N[C@@H](CC(C)C)C(=O)N[C@H](C(=O)N[C@@H](CO)C(=O)O)[C@@H](C)CC)[C@@H](C)O)[C@@H](C)O)C(C)C [KWKLFKKIGIGAVLTTGLPALIS]

Structure (SMILES): NC(=O)C[C@H](NC(=O)[C@H](Cc1cnc[nH]1)NC(=O)[C@H](CC(N)=O)NC(=O)[C@@H](N)Cc1ccc(O)cc1)C(=O)N[C@@H](Cc1ccccc1)C(=O)O [YNHNF]
- MIC [5]: ≥ 300 µM
- MIC [6]: 150 µM (≈ 104 µg/mL)
- MIC [7]: 300 µM (≈ 208 µg/mL)
- MIC [8]: ≥ 300 µM

- MIC [9]: 2 µM (≈ 4.37 µg/mL)
- MIC [6]: 1.56 µM (≈ 3.41 µg/mL)
- MIC [10]: 8 µM (≈ 17.5 µg/mL)
- MIC [11]: 3.12 µM (≈ 6.82 µg/mL)
- MIC [12]: 4 µM and 3.12 µM
- MIC [1]: 8 µM (≈ 17.5 µg/mL)
- MIC [13]: 16 µM (≈ 35 µg/mL)
- MIC [14]: 4 µM and > 2.01 µM
- MIC (Pseudomonas aeruginosa): 4 µM (≈ 8.74 µg/mL)
- MIC (Candida albicans): 2.83 µM (≈ 6.18 µg/mL)
- MIC [7]: > 100 µM
- MIC [15]: 4.03 µM (≈ 8.8 µg/mL)
- MIC [16]: 1.56 µM (≈ 3.41 µg/mL)
- MIC [17]: 0.125 µM (≈ 0.273 µg/mL)
- MIC (Staphylococcus aureus): 64 µM and 100 µM
- MIC (Staphylococcus hominis): 1 µM (≈ 2.18 µg/mL)
Structure (SMILES): CC[C@H](C)[C@H](NC(=O)CN)C(=O)N[C@@H](Cc1ccccc1)C(=O)N[C@@H](CO)C(=O)N[C@@H](CCCCN)C(=O)N[C@@H](CC(C)C)C(=O)N[C@@H](C)C(=O)NCC(=O)N[C@@H](CCCCN)C(=O)N[C@@H](CCCCN)C(=O)N[C@H](C(=O)N[C@@H](CCCCN)C(=O)N[C@@H](CC(N)=O)C(=O)N[C@@H](CC(C)C)C(=O)N[C@@H](CC(C)C)C(=O)N[C@H](C(=O)N[C@@H](CO)C(=O)NCC(=O)N[C@@H](CC(C)C)C(=O)N[C@@H](CCCCN)C(=O)NCC(N)=O)[C@@H](C)CC)[C@@H](C)CC [GIFSKLAGKKIKNLLISGLKG]
